Consider 1 substance from US20160333019A1, “SYNTHESIS AND FORMULATIONS OF PORPHYRIN COMPOUNDS” (Aeolus Sciences, Inc., priority 2013, published 2016).

What all share (assay type): physicochemical
The nature of data set [1]: pH titration of 75 mg/mL Formula (VI) in WFI with 1.0N HCl. To be noted: 75 mg/mL in water titrated with hydrochloric acid. Here is the method:
A solution of 75 mg/mL compound was prepared by dissolving in WFI and gently mixing for 16-24 hours prior to the titration. The titration of compound with a strong acid provided information for this compound in terms of “apparent” pKa.
In addition, this mixing would allow oxidation of trace Mn (II) compound to the higher oxidation state of Mn (III). The drug solution was titrated with 1.0 N HCl at 30 μL increments.
About 10 g of WFI was placed in the container including stir bar. […] The solution was them mixed at room temperature for 16-24 hours. At the end of the 16-24 hour hold/mix, the solution was titrated from its starting pH of about 9 down to pH 3 using 1N HCl.
Due to a big molecular structure (MW=1033), the sample preparation required an unusually long mixing process for 16-24 hours in order to complete the dissociation of drug and the oxidation of trace […] compound into a higher oxidation state of Mn (III). This mixing process was crucial to achieve the final pH equilibrium.

Data set [2] in a line: Study 2: 75 mg/mL Formula (VI) in WFI at pH 7.0, 14 days at 60° C. The protocol:
The samples were filled in glass vials and capped with an air headspace. All samples were tested and evaluated for physicochemical stability under the storage conditions at 2-8 and 60° C. after 0, 3, 7 and 14 days.
About 10 g of WFI was placed in the container including a stir bar.
The pH was measured at approximately hourly intervals and at about 16 hours and 24 hours. At the end of the 16-24 hour hold/mix, the pH of the solution was adjusted to pH 7.0 with either HCl or NaOH and mixed for approximately 15 minutes. The solution was filtered through a PVDF, 0.22 μm filter into a clean container and its pH measured.
The pH was measured at 30 minutes then hourly thereafter for the 16-24 hour time period. Once the solution pH and osmolality stabilized, the air sparging was stopped. The solution was adjusted to pH 7.0 with either HCl or NaOH and mixed for about 15 minutes. The solution was filtered through a PVDF, 0.22 μm filter into clean container and the pH measured.
Both samples were then stored at 60° C. and samples taken at 0, 3, 7 and 14 days from both containers and to measure pH. […]

A short description of data set [3]: Study 3: various strengths of Formula (VI) in WFI at pH 7.0, with and without ascorbic acid. Here is the method: Ascorbic acid was also included in this study. […] The samples were tested and evaluated for physicochemical stability under 2-8 and 60° C. storage conditions after 0, 3, 7 and 14 days.
(§1) About 10 g of WFI was placed in the container including a stir bar. […] The pH was measured and the solution was mixed at room temperature for 16-24 hours. At the end of the 16-24 hour hold/mix, the pH of solution was adjusted to pH 7.0 with either HCl or NaOH and mixed for about 15 minutes. The solution was filtered through a PVDF, 0.22 μm filter by discarding about 1 mL prior to placing about 9-10 mL into each of two separate clean containers. The pH of the samples was then measured.
About 10 g of WFI was placed in the container including a stir bar. […] About 0.1026 g of Ascorbic Acid was added to the container while mixing. […] The pH was measured and the solution was mixed at room temperature for 16-24 hours. At the end of the 16-24 hour hold/mix, the pH of solution was adjusted to pH 7.0 with either HCl or NaOH and mixed for about 15 minutes. The solution was filtered through a PVDF, 0.22 μm filter by discarding 1 mL prior to placing about 9-10 mL into each of two separate clean containers. The pH of the samples was then measured.
About 10 g of WFI was placed in the container including a stir bar. […] About 0.103 g of Ascorbic Acid was added to the container while mixing. […] The pH was measured and the solution was mixed at room temperature for 16-24 hours. At the end of the 16-24 hour hold/mix, the pH of solution was adjusted to pH 7.0 with either HCl or NaOH and mixed for about 15 minutes. The solution was filtered through a PVDF, 0.22 μm filter by discarding about 1 mL prior to placing about 9-10 mL into each of two separate clean containers. The pH of the samples was then measured.
Following preparation of the solutions, one container of each of solutions 1-6 was stored at 2-8° C. The remaining containers for each of solutions 1-6 were stored at 60° C. From each container, a sample was taken at 0, 3, 7 and 14 days and the pH of the solution was measured.

Data set [4] in a line: Study 4: 75 mg/mL Formula (VI) in WFI at pH 7.0 under ICH storage temperatures. Particulars: after 1 month. Here is the method:
as §1, with “4-5” for “9-10”, “four” for “two”, “containers (A, B, C, D).” for “containers.”, “measured. Solution A was stored at 2-8° C., solution B at 25° C., solution C at 30° C. and solution D at 40° C. […]” for “measured.”

Some results are limits rather than exact numbers.

Regarding “[5,10,15,20-tetrakis(1,3-diethylimidazolium-2-yl)porphyrinato]manganese(III) chloride hydrate complex [Formula (VI)]”, in data set [1], the “"apparent" pKa” value was found to be 9.02. Moreover, the “dependence of drug stability on pH” value in data set [2] (75 mg/mL in WFI, 2-8 and 60° C., 0, 3, 7 and 14 days) is given as “The lower the pH, the greater the drug stability”. The pH decrease in data set [2] (75 mg/mL in water at pH 7.0, 60° C., after 14 days) is 1-2 pH units; in data set [3] (65 and 75 mg/mL samples without ascorbic acid, 60° C., after 14 days) it was approximately 2 pH units; in data set [4] (75 mg/mL pH 7, 25° C.), “approximately 0.3 pH units”; in data set [4] (75 mg/mL pH 7, 30° C.) it was approximately 0.5 pH units; in data set [4] (75 mg/mL pH 7, 40° C.), approximately 1.1 pH units. Besides, the pH stability entry in data set [2] (75 mg/mL in water at pH 7.0, refrigerated condition) is “relatively stable”; in data set [3] (65 and 75 mg/mL samples without ascorbic acid, refrigerated condition), “relatively stable”. Besides, in data set [2] (75 mg/mL in water pH 7, 60° C.), the “chemical stability, air sparged versus non-sparged sample” value was “better stability”. In addition, the “degradation lower than that from the control sample” value in data set [2] (75 mg/mL in water pH 7, all samples stored at 60° C., after 14 days) is on record as 3-6%. In addition, in data set [3] (100 mg/mL refrigerated sample without ascorbic acid, after 3 day storage), the pH increase is on record as approximately 1 pH unit. Also, the “pH decrease compared to the control sample” value in data set [3] (100 mg/mL sample without ascorbic acid, 60° C., after 14 days) is approximately 2 pH units. Besides, the degradation in data set [3] (65, 75, 100 mg/mL in water pH 7 containing ascorbic acid, 60° C., after 14 days) is 3-5%; in data set [3] (65, 75, 100 mg/mL in water pH 7 without ascorbic acid, 60° C., after 14 days), 3-5%. Further, in data set [3] (all refrigerated samples containing ascorbic acid, after 14 days), the “pH increase from initial pH” value was approximately 1.5 pH units. Moreover, the “pH decrease from initial pH” value in data set [3] (samples containing ascorbic acid, 60° C., after 3 days) is approximately 2 pH units. The pH rise back in data set [3] (samples containing ascorbic acid, 60° C., after 14 days) was 1-1.5 pH units. In addition, in data set [4] (75 mg/mL in water pH 7, each storage condition), the chemical stability entry is reported as “No significant change”. Further, the osmolality in data set [4] (75 mg/mL pH 7, all samples) is recorded as 270-276 mOsm/kg. In data set [4] (75 mg/mL pH 7, refrigerated sample), this substance showed a pH change not above 0.1 pH unit.
